In patent US20210032257A1, “(E)-1-(4-(DIMETHYLAMINO)BUT-2-ENOYL)PYRROLIDIN-3-YL 4-((3-ISOPROPYL-5-METHYLPYRAZOLO[1,5-A]PYRIMIDIN-7-YL)AMINO)PIPERIDINE-1-CARBOXYLATE FOR INHIBITING CDK7” (Eli Lilly and Company, priority 2017, published 2021):

Columns and labels:
Assay in all cases: Biomarker study proliferation (CellTiter-Glo)
Format in all cases: cell-based
NCIH441 = tested on: NCIH441
Method: (§1) Cancer cell lines are profiled to evaluate the anti-proliferative activity of a test compound in-vitro. Mutation, copy number and gene expression information of ARID1A, KMT2C, KMT2D and/or RB1 genes across cancer cell lines is obtained from COSMIC database (cancer.sanger.ac.uk) and cBioportal (http://www.cbioportal.org/). Cells are cultured in growth medium and plated into a 96-well plate in 100 μL/well growth medium at 5000 cells/well then incubated at 37° C., 5% CO2 overnight. Cells are cultured using supplier recommended media and conditions well known in the art, for example with RPMI 1640 with or without HEPES & L-Glutamine (Thermo SH30255.01) and 1 mM Sodium Pyruvate, and 10% FBS(Gibco cat #10082). The 1000× intermediate dilution plate is prepared by making a 10 mM working solution of a test sample in DMSO and performing 1:3 dilutions in DMSO for 10 points. The 10× dosing plate is prepared by adding 2 μL from the 1000× intermediate dilution plate to 198 μL of OPTIMEM®+10% FBS and mixing well. The cell plate is then treated by adding 11 μL from the 10× dosing plate into the 100 μL/well cell plate for a 1× final concentration. Staurosporine is used as a maximum growth inhibition control at a final concentration of 5 μM. The cell plate is incubated for 7 days at 37° C., 5% CO2. Seven days after treatment, Cell Titer-Glo® (Promega cat #G7571) assay buffer and substrate are removed from −20° C. and allowed to equilibrate to RT. Assay buffer is added to the substrate and swirled gently to mix. The CELL TITER-GLO® reagent (100 μL/well) is added to the cell plate and incubated at RT for 15 minutes. After 15 minutes, luminescence is read using a plate reader. Data is analyzed in Excel and graphed in GraphPad Prism. Statistical analysis and p value is calculated using Mann-Whitney nonparameteric t tests using GraphPad Prism.
(§2) Anti-proliferative effects of a test compound are categorized as insensitive (IC50≥1 μM), cytostatic (IC50<1 μM and % inhibition <70%) or cytotoxic (IC50<1 μM and % inhibition ≥70%).

AN3CA = tested on: AN3CA
Method: as §1, §2

HEP3B217 = tested on: HEP3B217
Method: as §1, §2

HT1197 = tested on: HT1197
Method: as §1, §2

OVCAR8 = tested on: OVCAR8
Method: as §1, §2

MX1 = tested on: MX1
Method: as §1, §2

NUGC4 = tested on: NUGC4
Method: as §1, §2

SHSY5Y = tested on: SHSY5Y
Method: as §1, §2

CAOV3 = tested on: CAOV3
Method: as §1, §2

UACC893 = tested on: UACC893
Method: as §1, §2

SNU16 = tested on: SNU16
Method: as §1, §2

A2058 = tested on: A2058
Method: as §1, §2

SNU5 = tested on: SNU5
Method: as §1, §2

MKN74 = tested on: MKN74
Method: as §1, §2

NCIH1703 = tested on: NCIH1703
Method: as §1, §2

HCC70 = tested on: HCC70
Method: as §1, §2

NCIH146 = tested on: NCIH146
Method: as §1, §2

MDAMB468 = tested on: MDAMB468
Method: as §1, §2

Cc1cc(NC2CCN(C(=O)O[C@H]3CCN(C(=O)/C=C/CN(C)C)C3)CC2)n2ncc(C(C)C)c2n1 [Example 1, [(3S)-1-[(E)-4-(dimethylamino)but-2-enoyl]pyrrolidin-3-yl] 4-[(3-isopropyl-5-methyl-pyrazolo[1,5-a]pyrimidin-7-yl)amino]piperidine-1-carboxylate]
IC50 (NCIH441; Homo sapiens, NCI-H441, 168 h, read-out: Anti-proliferation effect IC50): 14 nM
Anti-proliferation effect % Inh. (NCIH441; NCIH441, LUNG, 7 days): 84%
Anti-proliferation effect Outcome (NCIH441; NCIH441, LUNG, 7 days): Cytotoxic (cytotoxic (IC50<1 μM and % inhibition ≥70%))
Anti-proliferation effect % Inh. (AN3CA; AN3CA, ENDOMETRIUM, 7 days): 67%
Anti-proliferation effect Outcome (AN3CA; AN3CA, ENDOMETRIUM, 7 days): Cytostatic (cytostatic (IC50<1 μM and % inhibition <70%))
IC50 (AN3CA; Homo sapiens, AN3-CA, 168 h, read-out: Anti-proliferation effect IC50): 50 nM
IC50 (HEP3B217; 168 h, read-out: Anti-proliferation effect IC50): 33 nM
Anti-proliferation effect % Inh. (HEP3B217; HEP3B217, LIVER, 7 days): 66%
Anti-proliferation effect Outcome (HEP3B217; HEP3B217, LIVER, 7 days): Cytostatic (cytostatic (IC50<1 μM and % inhibition <70%))
Anti-proliferation effect % Inh. (HT1197; HT1197, URINARY, 7 days): 55%
Anti-proliferation effect Outcome (HT1197; HT1197, URINARY, 7 days): Cytostatic (cytostatic (IC50<1 μM and % inhibition <70%))
IC50 (HT1197; Homo sapiens, HT1197, 168 h, read-out: Anti-proliferation effect IC50): 281 nM
IC50 (OVCAR8; Homo sapiens, OVCAR-8, 168 h, read-out: Anti-proliferation effect IC50): 65 nM
Anti-proliferation effect % Inh. (OVCAR8; OVCAR8, OVARY, 7 days): 90%
Anti-proliferation effect Outcome (OVCAR8; OVCAR8, OVARY, 7 days): Cytotoxic (cytotoxic (IC50<1 μM and % inhibition ≥70%))
IC50 (MX1; Homo sapiens, MX1, 168 h, read-out: Anti-proliferation effect IC50): 45 nM
Anti-proliferation effect % Inh. (MX1; MX1, BREAST, 7 days): 72%
Anti-proliferation effect Outcome (MX1; MX1, BREAST, 7 days): Cytotoxic (cytotoxic (IC50<1 μM and % inhibition ≥70%))
IC50 (NUGC4; Homo sapiens, NUGC-4, 168 h, read-out: Anti-proliferation effect IC50): 19 nM
Anti-proliferation effect % Inh. (NUGC4; NUGC4, STOMACH, 7 days): 83%
Anti-proliferation effect Outcome (NUGC4; NUGC4, STOMACH, 7 days): Cytotoxic (cytotoxic (IC50<1 μM and % inhibition ≥70%))
IC50 (SHSY5Y; Homo sapiens, SH-SY5Y, 168 h, read-out: Anti-proliferation effect IC50): 59 nM
Anti-proliferation effect % Inh. (SHSY5Y; SHSY5Y, CNS, 7 days): 95%
Anti-proliferation effect Outcome (SHSY5Y; SHSY5Y, CNS, 7 days): Cytotoxic (cytotoxic (IC50<1 μM and % inhibition ≥70%))
Anti-proliferation effect % Inh. (CAOV3; CAOV3, OVARY, 7 days): 96%
Anti-proliferation effect Outcome (CAOV3; CAOV3, OVARY, 7 days): Cytotoxic (cytotoxic (IC50<1 μM and % inhibition ≥70%))
IC50 (CAOV3; Homo sapiens, Caov-3, 168 h, read-out: Anti-proliferation effect IC50): 19 nM
IC50 (UACC893; Homo sapiens, UACC-893, 168 h, read-out: Anti-proliferation effect IC50): 4150 nM
Anti-proliferation effect % Inh. (UACC893; UACC893, BREAST, 7 days): −51%
Anti-proliferation effect Outcome (UACC893; UACC893, BREAST, 7 days): Insensitive (insensitive (IC50≥1 μM))
IC50 (SNU16; Homo sapiens, SNU-16, 168 h, read-out: Anti-proliferation effect IC50): 17 nM
Anti-proliferation effect % Inh. (SNU16; SNU16, STOMACH, 7 days): 84%
Anti-proliferation effect Outcome (SNU16; SNU16, STOMACH, 7 days): Cytotoxic (cytotoxic (IC50<1 μM and % inhibition ≥70%))
Anti-proliferation effect % Inh. (A2058; A2058, SKIN, 7 days): 97%
Anti-proliferation effect Outcome (A2058; A2058, SKIN, 7 days): Cytotoxic (cytotoxic (IC50<1 μM and % inhibition ≥70%))
IC50 (A2058; Homo sapiens, A2058, 168 h, read-out: Anti-proliferation effect IC50): 30 nM
IC50 (SNU5; Homo sapiens, SNU-5, 168 h, read-out: Anti-proliferation effect IC50): 39 nM
Anti-proliferation effect % Inh. (SNU5; SNU5, STOMACH, 7 days): 79%
Anti-proliferation effect Outcome (SNU5; SNU5, STOMACH, 7 days): Cytotoxic (cytotoxic (IC50<1 μM and % inhibition ≥70%))
IC50 (MKN74; Homo sapiens, MKN-74, 168 h, read-out: Anti-proliferation effect IC50): 73 nM
Anti-proliferation effect % Inh. (MKN74; MKN74, STOMACH, 7 days): 71%
Anti-proliferation effect Outcome (MKN74; MKN74, STOMACH, 7 days): Cytotoxic (cytotoxic (IC50<1 μM and % inhibition ≥70%))
IC50 (NCIH1703; Homo sapiens, NCI-H1703, 168 h, read-out: Anti-proliferation effect IC50): 40 nM
Anti-proliferation effect % Inh. (NCIH1703; NCIH1703, LUNG, 7 days): 92%
Anti-proliferation effect Outcome (NCIH1703; NCIH1703, LUNG, 7 days): Cytotoxic (cytotoxic (IC50<1 μM and % inhibition ≥70%))
Anti-proliferation effect % Inh. (HCC70; HCC70, BREAST, 7 days): 89%
Anti-proliferation effect Outcome (HCC70; HCC70, BREAST, 7 days): Cytotoxic (cytotoxic (IC50<1 μM and % inhibition ≥70%))
IC50 (HCC70; Homo sapiens, HCC70, 168 h, read-out: Anti-proliferation effect IC50): 38 nM
IC50 (NCIH146; Homo sapiens, NCI-H146, 168 h, read-out: Anti-proliferation effect IC50): 30 nM
Anti-proliferation effect % Inh. (NCIH146; NCIH146, LUNG, 7 days): 77%
Anti-proliferation effect Outcome (NCIH146; NCIH146, LUNG, 7 days): Cytotoxic (cytotoxic (IC50<1 μM and % inhibition ≥70%))
IC50 (MDAMB468; Homo sapiens, MDA-MB-468, 168 h, read-out: Anti-proliferation effect IC50): 8 nM
Anti-proliferation effect % Inh. (MDAMB468; MDAMB468, BREAST, 7 days): 100%
Anti-proliferation effect Outcome (MDAMB468; MDAMB468, BREAST, 7 days): Cytotoxic (cytotoxic (IC50<1 μM and % inhibition ≥70%))
